Publication PMC6104039 (Nature Communications, 2018)
Values joined by “and” are separate entries in the source; they are usually repeats but may differ in a detail not shown here. Equal entries are not always repeated.

System: HEK293 cells
Experiment: Endogenous ceramide, HexCer and SM levels in cells treated 24 h, targeted LC-MS/MS
Type: cell-based
Parameters: Cer 18:1/24:0 content in HEK293 cells / Cer 18:1/24:1 content in HEK293 cells / HexCer 18:1/16:0 content in HEK293 cells / HexCer 18:1/18:0 content in HEK293 cells / HexCer 18:1/20:0 content in HEK293 cells / HexCer 18:1/22:0 content in HEK293 cells / Cer 18:1/16:0 content in HEK293 cells / Cer 18:1/18:0 content in HEK293 cells / Cer 18:1/20:0 content in HEK293 cells / Cer 18:1/22:0 content in HEK293 cells: unit not given here
Method: Lipids were then extracted using MTBE/methanol/water as described above.
HEK293 cell culture experiment: Levels of each lipid in P053-treated HEK293 cells were normalised to the mean of the vehicle control group, and each concentration was compared to the control using ANOVA with Dunnett’s post-test. P values were adjusted for multiple comparisons in GraphPad PRISM.
Supplementary Figure 1. Ceramide, SM, and HexCer levels in HEK293 cells treated with
P053. Absolute lipid levels were determined by targeted LC-MS/MS, relative to external
standard curves. Results are mean ± SEM (n = 4) from one of two identical experiments.
Statistically significant results, based on two independent experiments, are as indicated in
Figure 2b-d. Raw data for these figures is provided in Supplementary Data File 1.

[1] = HEK293 cells, 24 h, P053 300 nM
[2] = P053 10 nM, replicates, raw data Suppl Fig 1

Which “16:0 SM level” value [1] does the source give for `C[C@@](N)(CO)CCc1ccc(OCc2ccc(Cl)c(Cl)c2)cc1` [P053, (S)-2-amino-4-(4-(3,4-dichlorobenzyloxy)phenyl)-2-methylbutan-1-ol] here?
Its value is 91.5762 percentage of the vehicle control group and 97.3304 percentage of the vehicle control group and 95.7086 percentage of the vehicle control group and 90.4865 percentage of the vehicle control group and 94.7045 percentage of the vehicle control group and 94.6107 percentage of the vehicle control group and 97.4329 percentage of the vehicle control group.

What about the “16:1 SM level” value [1] of the same molecule?
The value was 95.4131 percentage of the vehicle control group and 93.1931 percentage of the vehicle control group and 97.1412 percentage of the vehicle control group and 89.2518 percentage of the vehicle control group and 106.305 percentage of the vehicle control group and 110.099 percentage of the vehicle control group and 114.576 percentage of the vehicle control group.

And the “18:0 Cer level” value [1]?
Its value is 21.4642 percentage of the vehicle control group and 24.1123 percentage of the vehicle control group and 20.5881 percentage of the vehicle control group and 19.7155 percentage of the vehicle control group and 31.2852 percentage of the vehicle control group and 28.1026 percentage of the vehicle control group and 22.7669 percentage of the vehicle control group.

And the “18:0 HexCer level” value [1]?
The value was 20.413 percentage of the vehicle control group and 33.7976 percentage of the vehicle control group and 27.9895 percentage of the vehicle control group and 24.1749 percentage of the vehicle control group and 31.4424 percentage of the vehicle control group and 25.6474 percentage of the vehicle control group and 28.2273 percentage of the vehicle control group.

And the “18:0 SM level” value [1]?
The value was 51.9053 percentage of the vehicle control group and 55.6537 percentage of the vehicle control group and 52.9265 percentage of the vehicle control group and 58.2406 percentage of the vehicle control group and 58.0965 percentage of the vehicle control group and 68.5828 percentage of the vehicle control group.

And the “18:1 SM level” value [1]?
The value was 49.0849 percentage of the vehicle control group and 55.9252 percentage of the vehicle control group and 57.6407 percentage of the vehicle control group and 49.9379 percentage of the vehicle control group and 59.4579 percentage of the vehicle control group and 65.5511 percentage of the vehicle control group and 62.889 percentage of the vehicle control group.

And the “20:0 Cer level” value [1]?
The value was 93.6887 percentage of the vehicle control group and 101.721 percentage of the vehicle control group and 118.09 percentage of the vehicle control group and 85.7665 percentage of the vehicle control group and 100.615 percentage of the vehicle control group and 64.6288 percentage of the vehicle control group and 92.3762 percentage of the vehicle control group.

What about the “20:0 SM level” value [1] of the same molecule?
The value was 118.407 percentage of the vehicle control group and 108.075 percentage of the vehicle control group and 104.904 percentage of the vehicle control group and 101.736 percentage of the vehicle control group and 91.4298 percentage of the vehicle control group and 108.941 percentage of the vehicle control group and 75.5566 percentage of the vehicle control group.

What about the “22:0 Cer level” value [1] of the same molecule?
The value was 118.325 percentage of the vehicle control group and 95.8434 percentage of the vehicle control group and 96.1691 percentage of the vehicle control group and 93.2377 percentage of the vehicle control group and 117.011 percentage of the vehicle control group and 126.355 percentage of the vehicle control group and 127.853 percentage of the vehicle control group.

And the “22:0 HexCer level” value [1]?
The value was 109.712 percentage of the vehicle control group and 101.896 percentage of the vehicle control group and 93.6786 percentage of the vehicle control group and 100.98 percentage of the vehicle control group and 134.335 percentage of the vehicle control group and 123.952 percentage of the vehicle control group and 138.922 percentage of the vehicle control group.

And the “22:0 SM level” value [1]?
The value was 115.888 percentage of the vehicle control group and 97.5579 percentage of the vehicle control group and 89.8927 percentage of the vehicle control group and 119.666 percentage of the vehicle control group and 127.143 percentage of the vehicle control group and 125.883 percentage of the vehicle control group and 147.638 percentage of the vehicle control group.

And the “22:1 SM level” value [1]?
Its value is 108.27 percentage of the vehicle control group and 122.085 percentage of the vehicle control group and 110.7 percentage of the vehicle control group and 101.001 percentage of the vehicle control group and 122.515 percentage of the vehicle control group and 112.931 percentage of the vehicle control group and 116.965 percentage of the vehicle control group.

What about the “24:0 HexCer level” value [1] of the same molecule?
The value was 104.713 percentage of the vehicle control group and 95.2413 percentage of the vehicle control group and 95.3365 percentage of the vehicle control group and 92.7673 percentage of the vehicle control group and 114.448 percentage of the vehicle control group and 102.627 percentage of the vehicle control group and 132.114 percentage of the vehicle control group.

What about the “24:0 SM level” value [1] of the same molecule?
The value was 113.274 percentage of the vehicle control group and 99.4416 percentage of the vehicle control group and 98.6316 percentage of the vehicle control group and 91.5407 percentage of the vehicle control group and 114.934 percentage of the vehicle control group and 115.44 percentage of the vehicle control group and 155.315 percentage of the vehicle control group.

What about the “24:1 Cer level” value [1] of the same molecule?
The value was 111.319 percentage of the vehicle control group and 96.194 percentage of the vehicle control group and 99.387 percentage of the vehicle control group and 100.62 percentage of the vehicle control group and 125.506 percentage of the vehicle control group and 116.048 percentage of the vehicle control group and 122.55 percentage of the vehicle control group.

And the “24:1 HexCer level” value [1]?
Its value is 99.7739 percentage of the vehicle control group and 98.9226 percentage of the vehicle control group and 100.626 percentage of the vehicle control group and 98.0727 percentage of the vehicle control group and 98.7766 percentage of the vehicle control group and 107.494 percentage of the vehicle control group and 117.137 percentage of the vehicle control group.

What about the “24:1 SM level” value [1] of the same molecule?
Its value is 105.1 percentage of the vehicle control group and 102.826 percentage of the vehicle control group and 108.435 percentage of the vehicle control group and 97.4023 percentage of the vehicle control group and 115.741 percentage of the vehicle control group and 108.576 percentage of the vehicle control group and 128.227 percentage of the vehicle control group.

What about the “Cer 18:1/16:0 content in HEK293 cells” value [2] of the same molecule?
Its value is 22.4895 and 20.1065 and 20.2227 and 20.5646.

And the “Cer 18:1/18:0 content in HEK293 cells” value [2]?
The value was 6.1592 and 6.073 and 6.699 and 5.451.

What about the “Cer 18:1/20:0 content in HEK293 cells” value [2] of the same molecule?
Its value is 0.6713 and 0.9209 and 0.7221 and 0.8599.

And the “Cer 18:1/22:0 content in HEK293 cells” value [2]?
Its value is 56.12 and 63.3729 and 65.2079 and 63.3152.
